# Source: patent US20160286810A1, “ACTIVE COMPOUND COMBINATIONS” (BAYER CROPSCIENCE AG, priority 2012, published 2016)
# What was measured:
# Format in all cases: in vivo
# [1] = tested on: Venturia inaequalis; test: Venturia test (apples)/preventive; details: preventive, 10 days after inoculation
# Procedure: (§1) Solvent: 24.5 parts by weight of acetone • 24.5 parts by weight of dimethylacetamide Emulsifier: 1 part by weight of alkylaryl polyglycol ether
# (§2) To produce a suitable preparation of active compound, 1 part by weight of active compound is mixed with the stated amounts of solvent and emulsifier, and the concentrate is diluted with water to the desired concentration.
# (§3) To test for preventive activity, young plants are sprayed with the preparation of active compound at the stated rate of application. After the spray coating has dried on, the plants are inoculated with an aqueous conidia suspension of the causal agent of apple scab (Venturia inaequalis) and then remain for 1 day in an incubation cabinet at approximately 20° C. and a relative atmospheric humidity of 100%.
# The plants are then placed in a greenhouse at approximately 21° C. and a relative atmospheric humidity of approximately 90%.
# The test is evaluated 10 days after the inoculation. 0% means an efficacy which corresponds to that of the untreated control, while an efficacy of 100% means that no disease is observed.
# [2] = tested on: Botrytis cinerea; test: Botrytis test (beans)/preventive; details: preventive, 2 days after inoculation
# Procedure: as §1, §2
# To test for preventive activity, young plants are sprayed with the preparation of active compound. After the spray coating has dried on, 2 small pieces of agar covered with growth of Botrytis cinerea are placed on each leaf. The inoculated plants are placed in a darkened chamber at 20° C. and a relative atmospheric humidity of 100%.
# 2 days after the inoculation, the size of the lesions on the leaves is evaluated. 0% means an efficacy which corresponds to that of the untreated control, while an efficacy of 100% means that no disease is observed.
# [3] = tested on: Alternaria solani; test: Alternaria test (tomatoes)/preventive; details: preventive, 3 days after inoculation
# Procedure: as §1, §2
# as §3, with “spore” for “conidia”, “Alternaria solani. The plants are” for “the causal agent of apple scab (Venturia inaequalis) and”, “placed” for “remain for 1 day”
# The test is evaluated 3 days after the inoculation. 0% means an efficacy which corresponds to that of the untreated control while an efficacy of 100% means that no disease is observed.
# [4] = tested on: Leptosphaeria nodorum; test: Leptosphaeria nodorum test (wheat)/preventive; details: preventive, 8 days after inoculation
# Procedure: Solvent: 49 parts by weight of N,N-dimethylacetamide Emulsifier: 1 part by weight of alkylaryl polyglycol ether To produce a suitable preparation of active compound, 1 part by weight of active compound or active compound combination is mixed with the stated amounts of solvent and emulsifier, and the concentrate is diluted with water to the desired concentration. To test for preventive activity, young plants are sprayed with the preparation of active compound or active compound combination at the stated rate of application. After the spray coating has been dried, the plants are sprayed with a spore suspension of Leptosphaeria nodorum. The plants remain for 48 hours in an incubation cabinet at approximately 20° C. and a relative atmospheric humidity of approximately 100%. The plants are placed in the greenhouse at a temperature of approximately 22° C. and a relative atmospheric humidity of approximately 80%. The test is evaluated 8 days after the inoculation. 0% means an efficacy which corresponds to that of the untreated control, while an efficacy of 100% means that no disease is observed.
smiles,measurement,setting,value
"Cn1c(=O)c2sc3c(=O)n(C)c(=O)c3sc2c1=O [(I-1), 2,6-dimethyl-1H,5H-[1,4]dithiino[2,3-c:5,6-c′]dipyrrole-1,3,5,7(2H,6H)-tetrone]",Efficacy in % found,[1]; 12.5 ppm a.i.,0%
same,Efficacy in % found,[1]; 25 ppm a.i.,15%
same,Efficacy in % found,[1]; 50 ppm a.i.,62%
same,Efficacy in % found,[2]; 12.5 ppm a.i.,15%
same,Efficacy in % found,[2]; 25 ppm a.i.,33%
same,Efficacy in % found,[3]; 50 ppm a.i.,29%
same,Efficacy in % found,[3]; 100 ppm a.i.,26%
same,Efficacy in % found,[4]; 1000 ppm a.i.,0%
"CC1(C)N=C(c2cnc3ccccc3c2)c2ccccc2C1(F)F [Ex 10, 3-(4,4-difluoro-3,3-dimethyl-3,4-dihydroisoquinolin-1-yl)quinoline]",Efficacy in % found,[3]; 100 ppm a.i.,37%
same,Efficacy in % found,[4]; 250 ppm a.i.,88%
"CC1(C)N=C(c2cnc3ccccc3c2)c2cccc(F)c2C1(C)C [Ex 11, 3-(5-fluoro-3,3,4,4-tetramethyl-3,4-dihydroisoquinolin-1-yl)quinoline]",Efficacy in % found,[1]; 1 ppm a.i.,0%
same,Efficacy in % found,[2]; 0.5 ppm a.i.,30%
same,Efficacy in % found,[3]; 50 ppm a.i.,38%
same,Efficacy in % found,[4]; 250 ppm a.i.,75%
"CC1(C)N=C(c2cnc3ccccc3c2)c2cccc(F)c2C1(F)F [Ex 12, 3-(4,4,5-trifluoro-3,3-dimethyl-3,4-dihydroisoquinolin-1-yl)quinoline]",Efficacy in % found,[1]; 0.25 ppm a.i.,46%
same,Efficacy in % found,[2]; 0.5 ppm a.i.,35%
same,Efficacy in % found,[3]; 50 ppm a.i.,13%
same,Efficacy in % found,[4]; 250 ppm a.i.,75%
"Cc1cc(OC(C)C)ccc1C(=O)C(C)(C)NC(=O)c1sccc1C [Ex 13, N-[1-(4-isopropoxy-2-methylphenyl)-2-methyl-1-oxopropan-2-yl]-3-methylthiophene-2-carboxamide]",Efficacy in % found,[1]; 10 ppm a.i.,64%
same,Efficacy in % found,[3]; 20 ppm a.i.,52%
same,Efficacy in % found,[4]; 250 ppm a.i.,25%
"CNC(=O)C(OC)c1ccccc1COc1cc(C)ccc1C (stereo not drawn) [Ex 14, N-methyl-alpha-methoxy-2-[(2,5-dimethylphenoxy)methyl]phenylacetamide]",Efficacy in % found,[1]; 1.25 ppm a.i.,31%
same,Efficacy in % found,[2]; 1.25 ppm a.i.,0%
same,Efficacy in % found,[3]; 5 ppm a.i.,52%
same,Efficacy in % found,[4]; 250 ppm a.i.,25%
"OC(c1cccnc1)c1c(-c2ccc(Cl)cc2F)noc1-c1ccc(F)cc1F (centres unmarked) [Ex 15, [3-(4-chloro-2-fluorophenyl)-5-(2,4-difluorophenyl)-1,2-oxazol-4-yl](pyridin-3-yl)methanol]",Efficacy in % found,[1]; 5 ppm a.i.,60%
same,Efficacy in % found,[2]; 2.5 ppm a.i.,0%
same,Efficacy in % found,[3]; 5 ppm a.i.,24%
same,Efficacy in % found,[4]; 250 ppm a.i.,88%
